Series [1] deals with dengue virus. In words: Extracellular and intracellular virus quantification in Huh7 cells. It is filed as cell-based. To be noted: IC90 dose (spautin-1 2.4 μM, vandetanib 3.6 μM), Huh7, 24 hpi. On the procedure:
(§1) FIG 5 Vandetanib and spautin-1 inhibit dengue maturation and egress in a VPS34-independent manner. […] Cells were pretreated for 1 h, infected for 1 h at an MOI of 0.5 PFU/cell, and posttreated for an additional 23 h. N = 4, one-way ANOVA with Dunnett’s multiple-comparison test. ns, not significant (P > 0.05); **, P < 0.01; ****, P < 0.0001. (C) Huh7 cells transfected with a luciferase-expressing RNA replicon were treated with 3 μM vandetanib (orange) or 1% DMSO vehicle control (black) for 1 h prior to transfection and up to 52 h posttransfection. Luciferase intensity was quantified as a measure of viral protein abundance. Luciferase intensity was shown as relative light units (RLU). The use of an RNA replicon that is directly transfected into cells reflects only translation and RNA replication steps of viral infection, not viral packaging or cell exit. N = 4, two-way ANOVA with Sikak’s multiple-comparison test. […] (D) VPS34 was not required for spautin-1 or vandetanib anti-dengue activity. Wild-type and VPS34 knockout Huh7 cells were treated with 5 μM spautin-1, 5 μM vandetanib, or DMSO. Cells were pretreated, infected at an MOI of 0.5, and posttreated as described above for panels A and B. At 24 hpi, cellular supernatant was collected and titered by plaque assay. N ≥ 3. One-way ANOVA with Dunnett’s multiple-comparison test; *, P < 0.05; **, P < 0.01; ***, P < 0.001; ****, P < 0.0001.
After 1 h, virus inoculum was aspirated and replaced with medium containing compounds or 1% DMSO. After 24-h total infection, extracellular virus was collected in cellular supernatant and quantified by plaque assay. To collect intracellular virus, cells were washed with PBS, incubated for 3 min at 4°C with high-salt buffer (1 M NaCl, 50 mM sodium bicarbonate [pH 9.5]) to detach cell-associated extracellular virus ([63]), washed twice with PBS, detached with 0.25% trypsin-EDTA, and isolated by centrifugation (500 × g, 5 min, 4°C). Infected cell pellets were resuspended in 750 μl cell culture medium, lysed by repeated freeze/thaw in liquid nitrogen followed by 37°C water bath. Debris was removed by centrifugation (3,200 × g, 5 min, 4°C), and infectious intracellular virus was quantified by BHK-21 plaque assay.

The subject of series [2] is DENV-2 luciferase-expressing replicon. In words: Replicon luciferase assay in Huh7 cells. The series is classed as cell-based, dengue virus. The note with it: 3 μM vandetanib, Huh7, up to 52 h posttransfection. The method, then:
as §1, with “Wild-type and VPS34 knockout Huh7 cells were treated with 5 μM spautin-1, 5 μM vandetanib, or DMSO. Cells were pretreated, infected at an MOI of 0.5, and posttreated as described above for panels A and B. At 24 hpi, cellular supernatant was collected and titered by plaque assay. N ≥ 3. One-way ANOVA with Dunnett’s multiple-comparison test; *, P < 0.05; **, P < 0.01; ***, P < 0.001; ****, P < 0.0001.” left out
A dengue replicon derived from the dengue virus strain 16681 expressing Renilla luciferase and dengue nonstructural proteins has been previously established ([7], [64]). […] Transfected cells were harvested and analyzed using the Renilla luciferase assay system (Promega BioSystems). Luciferase intensity was measured with a GloMax luminometer (10-s signal integration; Promega BioSystems).

The test system of series [3] is DENV2. In words: DENV2-infected AGB6 mouse model (splenic titer, survival). It is filed as in vivo, AGB6 mice. To be noted: AGB6 mice, 15 mg/kg vandetanib twice daily, 15 mg/kg; for Splenic viral titer: 4 days postinfection; for Survival of infected mice: oral.
Series [4] has as its system dengue virus. In words: Initial screening of hit compounds for anti-dengue activity in tissue culture cells (Table S1). It is filed as cell-based. The note with it: viral titer relative to vehicle, tissue culture cell lines (BHK-21 48 hpi, Fig. S1; Huh7, Fig. 2C, 3C, 4C).
Series [5] deals with BHK-21 and Huh7 cells. In words: Cell viability by WST assay in uninfected cells (Table S1). It is filed as cell-based. The note with it: cell viability relative to vehicle at these doses. The method, then:
Supplementary file : TABLE S1 Summary of hits for lead compounds ARDP0006 and ST-148 screened for anti-dengue activity in tissue culture cells. Hit compounds were tested for anti-dengue activity and cell toxicity in tissue culture cell lines. Antiviral activity is summarized as follows: −, not antiviral, with titer greater than 50% of vehicle; +, weakly antiviral, with titer between 20 and 50% of vehicle; ++, moderately antiviral, with titer between 5 and 20% of vehicle; +++, highly antiviral, with titer less than 5% of vehicle. Toxicity at these doses is represented as follows: −, nontoxic, with cell viability greater than 80% of vehicle; +, mild toxicity, with cell viability between 60 and 80% of vehicle; +++, high toxicity, with cell viability less than 60% of vehicle. Data summarized here are depicted graphically in Fig. S1 and Fig. 2C, 3C, and [4]C. […]
Supplementary file : FIG S1 Initial screening of eliminated hit compounds for anti-dengue activity in tissue culture cells. […] Cell viability in uninfected cells in the presence of compounds for 48 h was measured by WST assay (gray). […]
Mock-infected wells were used to determine cell viability in the presence of chemical compounds compared to 1% DMSO vehicle control. Cell viability was determined using the WST-1 kit (Abcam) per the manufacturer’s instructions. […]

The structures appear in SMILES notation. Entries after “also recorded” stand apart in the source; their conditions may differ.

The record followed here is PMC7667029, “A Targeted Computational Screen of the SWEETLEAD Database Reveals FDA-Approved Compounds with Anti-Dengue Viral Activity” (mBio, 2020).

Turning to `COc1cc2c(Nc3ccc(Br)cc3F)ncnc2cc1OCC1CCN(C)CC1` [Vandetanib, vandetanib], in series [1], the Extracellular viral titer entry is recorded as “significantly reduced; also recorded: reduced extracellular virus” and the Infectious intracellular virus entry was “unchanged; also recorded: abundant intracellular virus”. The “Luciferase production of replicon” value in series [2] is reported as “no effect on luciferase production; also recorded: no significant differences”. In series [3], the Splenic viral titer entry is “did not affect splenic titers” and the “Survival of infected mice” value is listed as “extend survival”. In addition, in series [3] (listed as vandetanib), the Splenic viral titer entry is reported as “did not significantly impact splenic viral titer” and the “Survival of infected mice” value is “significantly extended survival”. For the same molecule, the Antiviral entry in series [4] is “++ (moderately antiviral, with titer between 5 and 20% of vehicle)”. Further, in series [5], the Toxicity entry was “− (nontoxic, with cell viability greater than 80% of vehicle)”.
